# Laboratory results: patent US6040338A, “N,n-bis(sulfonyl)hydrazines useful as antineoplastic agents” (Yale University, priority 1997, dated 2000)
# How the values were obtained:
# [1] = tested on: tumor; conditions: in vivo; cited from earlier work
# [2] = tested on: L1210 leukemia; conditions: single intraperitoneal dose; cited from earlier work
# [3] = tested on: host animals; conditions: in vivo; cited from earlier work
# [4] = Initial rate of hydrolysis in aqueous media at pH 7.4 and 37° C.; format: physicochemical
# Experimental: For example, the initial rates of hydrolysis of 2-acetyl-1,2-bis(methylsulfonyl)-1-methylhydrazine (an acyl derivative shown in structural formula 5) and 1,2-bis(methylsulfonyl)-2-methoxycarbonyl-1-methylhydrazine (a carbamate compound shown in structural formula 6) were 0.3% and 0.007% per minute, respectively, at pH 7.4 and 37° C. [drawing 12]
# [5] = tested on: proteinase K or serum; experiment: Effect of proteinase K or serum on rate of decomposition/activation; format: in vitro ADME
# [6] = tested on: GSH/GST; experiment: Relative rate of activation by GSH/GST in vitro; format: in vitro ADME; conditions: 1 mM compound, GSH 1 mM, GST 400 μg/ml; compound 6 = 100
# Experimental: When R^3 is a methyl group, the rate of activation by GSH/GST is highly dependent upon the nature of the 2-alkoxy- or 2-aryloxycarbonyl moiety at the R^4 position.
# The rate of activation of 2-(2-bromoethoxy)carbonyl-1,2-bis(methylsulfonyl)-1-methylhydrazine (compound 8) was elevated approximately 18-fold in vitro by the presence of GSH (1 mM) and GST (400 μg/ml), compared to buffer alone.
# [7] = tested on: CHO-K1/dhfr^- cells; experiment: Colony-forming assay, aerobic and hypoxic CHO-K1/dhfr^- cells; format: cell-based, Chinese hamster
# Experimental: (§1) The ability of compounds 10h, 11, 12, and 14 to exert preferential toxicity to hypoxic cells was evaluated using the EMT6 mammary carcinoma by methodology described previously (Rockwell, S., Keyes, S. R., and Sartorelli, A. C. Rad. Res. 116: 100-113 (1988); Keyes, S. R., Rockwell, S., and Sartorelli, A. C. Cancer Res. 45: 213-216 (1985)). Briefly, exponentially growing monolayers of EMT6 (or CHO-K1/dhfr clone) were exposed to a continuously flowing 95% N2 /5% CO2 humidified atmosphere for 2 h to produce radiobiologic hypoxia. Parallel flasks were maintained similarly in humidified 95% air/5% CO2. Without breaking the hypoxia, cells were exposed to various concentrations of the test agent for 1 hr. Cell survival was then measured by colony formation.
# CHO-K1/dhfr cells were used to examine the role of the reductive enzymes NADPH:cytochrome P450 reductase and DT-diaphorase in the activation of compounds 10h and 12 in situ. Clones of CHO-K1/dhfr^- cells transfected with and overexpressing cDNAs for each of these enzymes were used for this purpose (Belcourt, M. F., Hodnick, W. F., Rockwell, S., and Sartorelli, A. C. Proc. Natl. Acad. Sci. USA 93: 456-460 (1996); Belcourt, M. F., Hodnick, W. F., Rockwell, S., and Sartorelli, A. C. Biochem. Pharmacol. 51: 1669-1678 (1996)).
# (§2) The cytotoxicity of compound loh was evaluated in aerobic and hypoxic Chinese hamster ovary (CHO-K1/dhfr^-) cells transfected with and overexpressing cDNAs for NADPH:cytochrome P450 reductase (27-fold more than parental cells, FIG. 3) or DT-diaphorase (133-fold more than parental cells, FIG. 4), two reductases with the potential to activate compound 10h. In FIGS. 3 and 4, points are means of duplicate determinations. […]
# (§3) Compound 12 was evaluated for its ability to exert preferential toxicity to hypoxic EMT6 cells relative to their aerobic counterparts. […]
# [8] = Activation by hydrolysis in phosphate buffer; format: physicochemical
# Experimental: (§4) The rates of activation of compounds 10a-h were measured in 1 mM phosphate buffer (pH 7.4, 37° C.) alone, 1 mM phosphate buffer containing 5 mM GSH (pH 7.4, 37° C.), and in 1 mM phosphate buffer containing 5 mM GSH and 17.5 U/ml of GST (pH 7.4, 37° C.) (Table 3).
# [9] = tested on: CHO-K1/dhfr^- cells transfected with DT-diaphorase cDNA; experiment: Colony-forming assay, CHO-K1/dhfr^- cells overexpressing DT-diaphorase; format: cell-based, Chinese hamster; conditions: 133-fold overexpression versus parental; FIG. 4
# Experimental: as §1
# CHO-K1/dhfr cells were used to examine the role of the reductive enzymes NADPH:cytochrome P450 reductase and DT-diaphorase in the activation of compounds 10h and 12 in situ. […]
# as §2, with “10h.” for “10h. In FIGS. 3 and 4, points are means of duplicate determinations.”
# [10] = tested on: CHO-K1/dhfr^- cells transfected with NADPH:cytochrome P450 reductase cDNA; experiment: Colony-forming assay, CHO-K1/dhfr^- cells overexpressing NADPH:cytochrome P450 reductase; format: cell-based, Chinese hamster
# Experimental: as §1, with “formation. […]” for “formation.”
# as §2, with “10h.” for “10h. In FIGS. 3 and 4, points are means of duplicate determinations.”
# as §3
# [11] = tested on: L1210 leukemia; experiment: Survival time and body weight of mice bearing the L1210 leukemia; format: in vivo, mice (CD2 F1); conditions: Table 4; i.p. once daily for 6 days at optimum daily dose (10a 60, 10b 25, 10c 12.5, 10d-h 30 mg/kg)
# Experimental: The ascites cell form of leukemia L1210 was obtained from the Frederick Cancer Research Facility, Division of Cancer Treatment Tumor Repository of the National Cancer Institute, and was maintained by serial passage in tissue culture. Every 8 weeks, tumor cells were injected intraperitoneally into 5 donor CD2 F1 mice 8-10 weeks of age and were allowed to grow for 7 days. The peritoneal fluid was withdrawn, and the suspension was centrifuged for 5 min at 1600×g. The supernatant was decanted, and 10^5 cells/ml were seeded into 10 ml of RPMI 1640 medium supplemented with 10% fetal bovine serum and 1% L-glutamine (200 mM) and once again maintained in culture. To assay for antitumor activity, 0.1 ml of the cell suspension containing 10^5 leukemia cells was injected into each recipient mouse. […] Each drug was administered intraperitoneally as a solution in 100% dimethyl sulfoxide, in a volume not exceeding 25 μl. […] Mice were weighed during the course of the experiments, and the percentage change in body weight from onset to termination of therapy was used as an indication of drug toxicity. Determination of the sensitivity of neoplasms to these agents was based upon the prolongation of survival time afforded by the drug treatments.
# The antitumor activity of compounds 10a-h and 16 were assessed in mice bearing the L1210 leukemia. The results of these tests are summarized in Tables 4 and 5 which show the effects of 2-alkoxycarbonyl- and 2-aryloxycarbonyl-1,2-bis(methylsulfonyl)-1-(2-chloroethyl)hydrazines on the survival time of mice bearing the L1210 leukemia.
# In Table 4, the optimum daily dose was administered once per day for six consecutive days, beginning 24 hours after tumor implantation, with 5-10 mice being used per group. In Table 5, multiple dosages of compound 16 are indicated. "Av Δ wt" refers to the average percent change in body weight from onset to termination of therapy. "% T/C" refers to the average survival time of treated/control mice×100. Cures (60-day survivors) are listed separately and are not included in this calculation.
# [12] = tested on: EMT6 mammary carcinoma cells; experiment: Colony-forming assay, EMT6 cells under hypoxic or aerobic conditions; format: cell-based, mouse; conditions: 1 hr exposure
# Experimental: as §1
# The cytotoxicity of compound 10h was evaluated against EMT6 mouse mammary carcinoma cells in vitro under aerobic and hypoxic conditions using the colony-forming assay described above. FIG. 1 depicts the survival of EMT6 cells exposed to various concentrations of compound 10h for 1 hr under hypoxic or aerobic conditions in vitro. Points are the geometric means of two or more independent determinations of surviving fractions. The SEMs are shown where n≥3 and where the error is larger than the point size. Open triangles represent aerobic data points and filled triangles represent hypoxic data points.
# Compound 12 was evaluated for its ability to exert preferential toxicity to hypoxic EMT6 cells relative to their aerobic counterparts. […] Points are geometric means of two or more independent determinations of surviving fractions. The SEMs are shown where n≥3 and where the error is larger than the point size. Open triangles are aerobic data points, and filled triangles are hypoxic data points. […] Points are means of duplicate determinations. Open triangles are parental-aerobic; filled triangles are parental-hypoxic; open circles are NADPH:cytochrome P450 reductase-transfected-aerobic; filled circles are NADPH:cytochrome P450 reductase-transfected-hypoxic.
# [13] = tested on: GST; experiment: Activation by GST-catalyzed thiolysis; format: in vitro ADME
# Experimental: as §4
# [14] = Activation by thiolysis (GSH); format: in vitro ADME
# Experimental: as §4
smiles,measurement,setting,value
"CS(=O)(=O)NN(CCCl)S(C)(=O)=O [Compound 2, 1,2-bis(methylsulfonyl)-1-(2-chloroethyl)hydrazine]",active dosage range (in words),[1],active only over a narrow dosage range
same,antitumor/antineoplastic activity (in words),[1],most active compound of this class
same,cures of mice bearing the L1210 leukemia,[2],40%
same,host toxicity (in words),[3],considerable host toxicity
"CC(=O)N(N(C)S(C)(=O)=O)S(C)(=O)=O [Compound 5, 2-acetyl-1,2-bis(methylsulfonyl)-1-methylhydrazine, reference compound]",initial rate of hydrolysis,[4],0.3 % per minute
same,enhancement of rate of activation by proteinase K or serum,[5]; levels of proteinase K or serum,~10 fold
"COC(=O)N(N(C)S(C)(=O)=O)S(C)(=O)=O [Compound 6, 1,2-Bis(methylsulfonyl)-2-(methoxycarbonyl)-1-methylhydrazine]",initial rate of hydrolysis,[4],0.007 % per minute
same,increase of rate of decomposition by proteinase K or serum,[5]; levels that enhanced activation of compound 5 almost 10-fold,not appreciably increased
same,Relative Activation Rate by GSH/GST,[6],100
"CS(=O)(=O)N(CCCl)N(C(=O)OCc1ccc([N+](=O)[O-])cc1)S(C)(=O)=O [Compound 10h, 1,2-Bis(methylsulfonyl)-1-(2-chloroethyl)-2-[(4-nitrobenzyloxy)carbonyl]hydrazine]",sensitivity of CHO-K1/dhfr^- cells compared with EMT6 cells (in words),[7]; FIGS. 3 and 4,less sensitive
same,sensitivity of hypoxic CHO-K1/dhfr^- cells compared with aerobic counterparts (in words),"[7]; hypoxic versus aerobic, FIGS. 3 and 4",more sensitive
same,Calculated Activation Rate due to Hydrolysis,"[8]; 1 mM phosphate buffer, pH 7.4, 37° C.",not detected
same,hydrolysis in phosphate buffer (in words),"[8]; phosphate buffer, physiological pH",little or no hydrolysis
same,kill of hypoxic or oxygenated cells on overexpression of DT-diaphorase (in words),[9],did not result in an increase in the kill of either hypoxic or oxygenated cells
same,sensitivity of cells overexpressing NADPH:cytochrome P450 reductase (in words),"[10]; 27-fold overexpression versus parental, FIG. 3",Increased sensitivity
same,Av Δ wt (average percent change in body weight from onset to termination of therapy),[11],-8.6%
same,toxicity to aerobic EMT6 cells (in words),"[12]; 40 μM, aerobic (FIG. 1)",relatively minor toxicity
same,log reduction at 40 µM,"[12]; Mus musculus, EMT6, 40 μM, hypoxic (FIG. 1), read-out: kill of hypoxic EMT6 cells",2
same,Calculated Activation Rate due to Catalyzed Thiolysis (5 mM GSH + 17.5 U/ml GST),"[13]; 1 mM phosphate buffer, 5 mM GSH, 17.5 U/ml GST, pH 7.4, 37° C.",20.5 nmol/mL/min
same,rate of activation when thiolysis is catalyzed by GST (in words),[13]; GSH + GST,relatively high rate of activation
same,Calculated Activation Rate due to Thiolysis (5 mM GSH),"[14]; 1 mM phosphate buffer, 5 mM GSH, pH 7.4, 37° C.",0.06 nmol/mL/min
same,rate of thiolysis with GSH (in words),[14]; reacted with GSH,extremely slow rate of thiolysis
"COc1cc(COC(=O)N(N(CCCl)S(C)(=O)=O)S(C)(=O)=O)c([N+](=O)[O-])cc1OC [Compound 12, 1,2-Bis(methylsulfonyl)-1-(2-chloroethyl)-2-[(4,5-dimethoxy-2-nitrobenzyloxy)carbonyl]hydrazine]",cytotoxicity to aerobic and hypoxic CHO-K1/dhfr^- cells (in words),[7]; 1 hr (FIG. 6),results similar to those described for compound 10h
same,cytotoxicity to hypoxic versus aerobic cells overexpressing NADPH-cytochrome P450 reductase,"[10]; 1 hr, hypoxic versus aerobic (FIG. 6)",> 3000 times
same,toxicity to aerobic EMT6 cells (in words),"[12]; 50 μM, aerobic (FIG. 5)",relatively minor toxicity
same,log reduction at 50 µM,"[12]; Mus musculus, EMT6, 50 μM, hypoxic (FIG. 5), read-out: kill of hypoxic EMT6 cells",> 3
